Values of other authors as cited in US20200222451A1, “Composition” (Optibiotix Limited, priority 2017, published 2020).

Conditions: compared to placebo

For chromium picolinate, the fat cravings (P<0.0001) is given as “reduces”, the food intake (P<0.0001) is given as “reduces” and the hunger levels (P<0.05) is given as “reduces”. For the same substance, the body weight (P<0.08) was “decrease”.
